A word on the TD50: it is the dose at which the toxic effect under study appears in half of the subjects.

Several values for one entry are separate records, joined by “and”; a condition that tells them apart may be missing. Equal values may be shown once. Activity calls are given as the source filed them. The rule behind the calls is not given here.

In this series the test system is rodent lifetime carcinogenesis bioassay, tumor incidence TD50. Kind of series: chronic cancer bioassays in animals – CPDB, compiled studies (AID 1745844).

For the compound `COc1c(Cl)c(Cl)c(Cl)c(Cl)c1Cl`, the TD50 runs as follows: (mouse, strain B6C3F1, females, by gavage, site: any site (literature study), lesion: several types, types named in the paper, dosed 103 weeks, study length 104 weeks) 47.5 mg/kg/day (inactive); (mouse, strain B6C3F1, females, by gavage, site: liver, lesion: hepatocellular adenoma + hepatocellular carcinoma + neoplastic nodule, dosed 103 weeks, study length 104 weeks) 63 mg/kg/day; (mouse, strain B6C3F1, females, by gavage, site: lung, lesion: alveolar/bronchiolar adenoma + alveolar/bronchiolar carcinoma, dosed 103 weeks, study length 104 weeks) 776 mg/kg/day; (mouse, strain B6C3F1, males, by gavage, site: adrenal medulla + liver, lesion: pheochromocytoma, benign + hemangiosarcoma, dosed 103 weeks, study length 104 weeks) 38.3 mg/kg/day; (mouse, strain B6C3F1, males, by gavage, site: adrenal medulla, lesion: pheochromocytoma, benign, dosed 103 weeks, study length 104 weeks) 77.4 mg/kg/day; (mouse, strain B6C3F1, males, by gavage, site: any site (literature study), lesion: several types, types named in the paper, dosed 103 weeks, study length 104 weeks) 40.2 mg/kg/day. Besides, the TD50 is, setting by setting: (mouse, strain B6C3F1, males, by gavage, site: liver, lesion: hemangiosarcoma, dosed 103 weeks, study length 104 weeks) 68 mg/kg/day; (rat, strain Fischer 344, females, by gavage, site: adrenal medulla, lesion: pheochromocytoma, benign, dosed 103 weeks, study length 104 weeks) 174 mg/kg/day; (rat, strain Fischer 344, females, by gavage, site: liver, lesion: hepatocellular adenoma + hepatocellular carcinoma + neoplastic nodule, dosed 103 weeks, study length 104 weeks) 1180 mg/kg/day; (rat, strain Fischer 344, males, by gavage, site: adrenal medulla, lesion: pheochromocytoma, benign, dosed 103 weeks, study length 104 weeks) 24.8 mg/kg/day; (rat, strain Fischer 344, males, by gavage, site: adrenal medulla, lesion: pheochromocytoma, malignant + pheochromocytoma, benign, dosed 103 weeks, study length 104 weeks) 30 mg/kg/day; (rat, strain Fischer 344, males, by gavage, site: liver, lesion: hepatocellular adenoma + hepatocellular carcinoma + neoplastic nodule, dosed 103 weeks, study length 104 weeks) 6460 mg/kg/day.
`COc1ccc(OC)c(/C=C/c2ccc(N)cc2)c1`: the TD50 by setting is: (mouse, strain CD-1 HaM/ICR, females, in feed, site: any site (literature study), lesion: several types, types named in the paper, dosed 77 weeks, study length 90 weeks) 118 mg/kg/day (inactive); (mouse, strain CD-1 HaM/ICR, females, in feed, site: lung, lesion: several types, types named in the paper, dosed 77 weeks, study length 90 weeks) 152 mg/kg/day (inactive); (mouse, strain CD-1 HaM/ICR, males, in feed, site: any site (literature study), lesion: several types, types named in the paper, dosed 77 weeks, study length 90 weeks) 126 mg/kg/day; (mouse, strain CD-1 HaM/ICR, males, in feed, site: liver, lesion: hepatoma, dosed 77 weeks, study length 90 weeks) 376 mg/kg/day; (mouse, strain CD-1 HaM/ICR, males, in feed, site: liver, lesion: several types, types named in the paper, dosed 77 weeks, study length 90 weeks) 329 mg/kg/day; (mouse, strain CD-1 HaM/ICR, males, in feed, site: lung, lesion: several types, types named in the paper, dosed 77 weeks, study length 90 weeks) 95.9 mg/kg/day and 115 mg/kg/day. Also, the TD50 was 0.269 mg/kg/day (rat, strain Charles River CD (Sprague-Dawley), males, in feed, site: any site (literature study), lesion: several types, types named in the paper, dosed 47 weeks, study length 51 weeks); 1.45 mg/kg/day and 1.54 mg/kg/day (rat, strain Charles River CD (Sprague-Dawley), males, in feed, site: ear, lesion: several types, types named in the paper, dosed 47 weeks, study length 51 weeks); 2.61 mg/kg/day (rat, strain Charles River CD (Sprague-Dawley), males, in feed, site: liver, lesion: several types, types named in the paper, dosed 47 weeks, study length 51 weeks); 1.48 mg/kg/day (rat, strain Charles River CD (Sprague-Dawley), males, in feed, site: skin, lesion: several types, types named in the paper, dosed 47 weeks, study length 51 weeks); 0.866 mg/kg/day (rat, strain Charles River CD (Sprague-Dawley), males, in feed, site: small intestine, lesion: several types, types named in the paper, dosed 47 weeks, study length 51 weeks); 0.721 mg/kg/day (rat, strain Charles River CD (Sprague-Dawley), males, in feed, site: stomach, lesion: several types, types named in the paper, dosed 47 weeks, study length 51 weeks). The carcinogen call (mouse, strain CD-1 HaM/ICR, females, in feed, site: liver, lesion: several types, types named in the paper, dosed 77 weeks, study length 90 weeks) is “negative (inactive)”.
Take `Cc1ccc(N=Nc2c(O)ccc3ccccc23)c([N+](=O)[O-])c1`: the TD50 was 13800 mg/kg/day (mouse, strain B6C3F1, females, in feed, site: any site (literature study), lesion: several types, types named in the paper, dosed 103 weeks, study length 104 weeks); 204000 mg/kg/day (mouse, strain B6C3F1, females, in feed, site: liver, lesion: hepatocellular adenoma + hepatocellular carcinoma + neoplastic nodule, dosed 103 weeks, study length 104 weeks); 252000 mg/kg/day (mouse, strain B6C3F1, females, in feed, site: lung, lesion: alveolar/bronchiolar adenoma + alveolar/bronchiolar carcinoma, dosed 103 weeks, study length 104 weeks); 104000 mg/kg/day (inactive) (mouse, strain B6C3F1, females, in feed, site: lymph node, lesion: axillary histiocytic sarcoma + deep cervical, histiocytic sarcoma + iliac histiocytic sarcoma + inguinal histiocytic sarcoma + r, dosed 103 weeks, study length 104 weeks); 22700 mg/kg/day (mouse, strain B6C3F1, males, in feed, site: all sites, lesion: malignant lymphoma, histiocytic type + malignant lymphoma, mixed type, dosed 103 weeks, study length 104 weeks); 9420 mg/kg/day (mouse, strain B6C3F1, males, in feed, site: any site (literature study), lesion: several types, types named in the paper, dosed 103 weeks, study length 104 weeks). The TD50 by setting is: (mouse, strain B6C3F1, males, in feed, site: kidney cortex + thyroid gland, lesion: adenoma + follicular-cell adenoma, dosed 103 weeks, study length 104 weeks) 19500 mg/kg/day; (mouse, strain B6C3F1, males, in feed, site: kidney cortex, lesion: adenoma, dosed 103 weeks, study length 104 weeks) 35500 mg/kg/day; (mouse, strain B6C3F1, males, in feed, site: liver, lesion: hepatocellular adenoma + hepatocellular carcinoma + neoplastic nodule, dosed 103 weeks, study length 104 weeks) 17900 mg/kg/day; (mouse, strain B6C3F1, males, in feed, site: lung, lesion: alveolar/bronchiolar adenoma + alveolar/bronchiolar carcinoma, dosed 103 weeks, study length 104 weeks) 36900 mg/kg/day; (mouse, strain B6C3F1, males, in feed, site: thyroid gland, lesion: follicular-cell adenoma, dosed 103 weeks, study length 104 weeks) 38300 mg/kg/day; (rat, strain Fischer 344, females, in feed, site: liver, lesion: hepatocellular adenoma + hepatocellular carcinoma + neoplastic nodule, dosed 103 weeks, study length 104 weeks) 5240 mg/kg/day. The TD50 was 5240 mg/kg/day (rat, strain Fischer 344, females, in feed, site: liver, lesion: hepatocellular adenoma, dosed 103 weeks, study length 104 weeks); 9010 mg/kg/day (rat, strain Fischer 344, males, in feed, site: Zymbal's gland, lesion: carcinoma, dosed 103 weeks, study length 104 weeks); 674 mg/kg/day (rat, strain Fischer 344, males, in feed, site: adrenal medulla, lesion: pheochromocytoma, benign, dosed 103 weeks, study length 104 weeks); 661 mg/kg/day (rat, strain Fischer 344, males, in feed, site: adrenal medulla, lesion: pheochromocytoma, malignant + pheochromocytoma, benign, dosed 103 weeks, study length 104 weeks); 906 mg/kg/day (rat, strain Fischer 344, males, in feed, site: any site (literature study), lesion: several types, types named in the paper, dosed 103 weeks, study length 104 weeks); 5170 mg/kg/day (rat, strain Fischer 344, males, in feed, site: liver, lesion: hepatocellular adenoma + hepatocellular carcinoma + neoplastic nodule, dosed 103 weeks, study length 104 weeks). In addition, the TD50 (rat, strain Fischer 344, males, in feed, site: skin, lesion: carcinoma + squamous-cell papilloma, dosed 103 weeks, study length 104 weeks) stood at 3660 mg/kg/day and the TD50 (rat, strain Fischer 344, males, in feed, site: skin, lesion: squamous-cell papilloma, dosed 103 weeks, study length 104 weeks) amounted to 2540 mg/kg/day.
Regarding `C=C1C(CCl)(CCl)C2(Cl)C(Cl)C(Cl)C1(Cl)C2(Cl)Cl` (stereo not drawn), the TD50 was 91.6 mg/kg/day (mouse, strain B6C3F1, females, in feed, site: liver, lesion: hepatocellular adenoma, dosed 78 weeks, study length 104 weeks); 11.4 mg/kg/day and 11.6 mg/kg/day (mouse, strain B6C3F1, females, in feed, site: liver, lesion: hepatocellular adenoma, dosed 80 weeks, study length 90 weeks); 66.2 mg/kg/day (mouse, strain B6C3F1, females, in feed, site: liver, lesion: hepatocellular carcinoma, dosed 78 weeks, study length 104 weeks); 273 mg/kg/day (mouse, strain B6C3F1, females, in feed, site: liver, lesion: hepatocellular carcinoma, dosed 80 weeks, study length 90 weeks); 10.6 mg/kg/day and 10.8 mg/kg/day (mouse, strain B6C3F1, females, in feed, site: liver, lesion: several types, pooled by NCI/NTP, dosed 80 weeks, study length 90 weeks); 37 mg/kg/day (mouse, strain B6C3F1, females, in feed, site: liver, lesion: several types, types named in the paper, dosed 78 weeks, study length 104 weeks). In addition, the TD50 (mouse, strain B6C3F1, males, in feed, site: liver, lesion: hepatocellular adenoma, dosed 78 weeks, study length 104 weeks) amounted to 21.2 mg/kg/day; the TD50 (mouse, strain B6C3F1, males, in feed, site: liver, lesion: hepatocellular adenoma, dosed 80 weeks, study length 90 weeks) was 6.12 mg/kg/day and 5.76 mg/kg/day; the TD50 (mouse, strain B6C3F1, males, in feed, site: liver, lesion: hepatocellular carcinoma, dosed 78 weeks, study length 104 weeks) stood at 27.5 mg/kg/day; the TD50 (mouse, strain B6C3F1, males, in feed, site: liver, lesion: hepatocellular carcinoma, dosed 80 weeks, study length 90 weeks) was 248 mg/kg/day and 168 mg/kg/day; the TD50 (mouse, strain B6C3F1, males, in feed, site: liver, lesion: several types, pooled by NCI/NTP, dosed 80 weeks, study length 90 weeks) was 4.2 mg/kg/day and 4.08 mg/kg/day; the TD50 (mouse, strain B6C3F1, males, in feed, site: liver, lesion: several types, types named in the paper, dosed 78 weeks, study length 104 weeks) was 13.6 mg/kg/day. Also, the TD50 (rat, strain Osborne-Mendel, females, in feed, site: any site (literature study), lesion: several types, types named in the paper, dosed 80 weeks, study length 108 weeks) was 596 mg/kg/day; the TD50 (rat, strain Osborne-Mendel, females, in feed, site: thyroid gland, lesion: follicular-cell adenoma, dosed 80 weeks, study length 108 weeks) is 209 mg/kg/day; the TD50 (rat, strain Osborne-Mendel, males, in feed, site: any site (literature study), lesion: several types, types named in the paper, dosed 80 weeks, study length 108 weeks) was found to be 1020 mg/kg/day; the TD50 (rat, strain Osborne-Mendel, males, in feed, site: liver, lesion: hepatocellular adenoma + hepatocellular carcinoma + neoplastic nodule, dosed 80 weeks, study length 108 weeks) is 949 mg/kg/day; the TD50 (rat, strain Osborne-Mendel, males, in feed, site: liver, lesion: neoplastic nodule, dosed 80 weeks, study length 108 weeks) is 92.1 mg/kg/day; the TD50 (rat, strain Osborne-Mendel, males, in feed, site: thyroid gland, lesion: follicular-cell adenoma + follicular-cell carcinoma, dosed 80 weeks, study length 108 weeks) is 58.9 mg/kg/day.

(Values after PubChem BioAssay AID1745844 (Carcinogenic Potency Database (CPDB), 2022).)
